Values after ≈ are worked out from the molar mass of the structure shown.
experiment: Toxicity against Artemia salina by Spearman-Karber method; assay type: organism-based; conditions: in vivo

Row | SMILES | LC50
1 | COc1cc(O)c2c(=O)cc(C(C)C)oc2c1 | 23.8 mg/L (≈ 102 µM)
2 | CCCc1cc(=O)c2c(OC)cc(OC)cc2o1 | 106 mg/L (≈ 427 µM)
3 | CCc1cc(=O)c2c(O)cc(OC)cc2o1 | 39 mg/L (≈ 177 µM)
4 | COc1cc(OC)c2c(=O)cc(Cc3ccccc3)oc2c1 | 247 mg/L (≈ 835 µM)
5 | COc1cc(O)c2c(=O)cc(Cc3ccccc3)oc2c1 | 517 mg/L (≈ 1830 µM)
6 | COc1cc(OC)c2c(=O)cc(C(C)C)oc2c1 | 94.2 mg/L (≈ 379 µM)
7 | COc1cc(O)c2c(=O)cc(C)oc2c1 [EUGENIN] | 112 mg/L (≈ 544 µM)
8 | COc1cc(OC)c2c(=O)cc(C)oc2c1 | 315 mg/L (≈ 1430 µM)
9 | CCCc1cc(=O)c2c(O)cc(OC)cc2o1 | 31.5 mg/L (≈ 134 µM)
10 | CCc1cc(=O)c2c(OC)cc(OC)cc2o1 | 200 mg/L (≈ 854 µM)
